Assay results from patent US12595252B2, “Inhibitors of SARM1” (DISARM THERAPEUTICS, INC., priority 2019, dated 2026).

Molecular target: T1, SARM1 (Homo sapiens, UniProt Q6SZW1)
T1 construct: made in house; host or cells: NRK1-HEK293T cells, transiently transfected; clarified lysate used unpurified
T1 sequence (Q6SZW1 with tags, fused parts or gaps): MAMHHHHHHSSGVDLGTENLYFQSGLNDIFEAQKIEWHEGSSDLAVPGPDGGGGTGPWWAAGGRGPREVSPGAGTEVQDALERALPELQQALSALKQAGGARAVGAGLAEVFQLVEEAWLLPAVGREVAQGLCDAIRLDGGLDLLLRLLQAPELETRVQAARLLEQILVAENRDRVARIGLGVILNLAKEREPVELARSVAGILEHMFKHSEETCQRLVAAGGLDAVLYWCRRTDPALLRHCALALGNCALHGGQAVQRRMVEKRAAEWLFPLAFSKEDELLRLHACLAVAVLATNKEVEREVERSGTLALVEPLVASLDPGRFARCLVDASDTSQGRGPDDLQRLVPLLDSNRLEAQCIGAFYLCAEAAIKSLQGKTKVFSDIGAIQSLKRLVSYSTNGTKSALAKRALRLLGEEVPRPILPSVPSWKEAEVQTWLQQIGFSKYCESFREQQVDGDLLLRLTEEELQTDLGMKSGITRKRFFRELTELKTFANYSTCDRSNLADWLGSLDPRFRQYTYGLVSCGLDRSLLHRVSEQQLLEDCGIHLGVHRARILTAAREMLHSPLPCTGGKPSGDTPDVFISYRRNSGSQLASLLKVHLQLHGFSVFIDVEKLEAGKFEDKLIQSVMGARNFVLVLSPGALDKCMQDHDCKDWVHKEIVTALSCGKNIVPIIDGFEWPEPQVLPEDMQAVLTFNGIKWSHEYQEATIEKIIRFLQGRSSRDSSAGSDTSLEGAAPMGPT
Test: ARM-SAM-TIR SARM1 IC50 assay (NADase activity, NAD+ cleavage)
Format: biochemical
Settings: not given
Protocol: This Example describes an assay of ARM-SAM-TIR NADase activity and use of this assay to measure the efficacy of compounds of Formula I to block SARM1 mediated NAD+ cleavage. This assay is optimized in such a way as to characterize the efficacy of the compounds in Formula I to inhibit SARM1 activity and to calculate an IC50 value for each compound. This assay makes use of full length SARM1, which encompasses the ARM, SAM and TIR domains.
NRK1-HEK293T cells were seeded onto 150 cm^2 plates at 20×10^6 cells per plate. The next day, the cells were transfected with 15 μg ARM-SAM-TIR expression plasmid, SEQ ID NO: 1.
The cultures were supplemented with 1 mM NR at time of transfection to minimize toxicity from ARM-SAM-TIR overexpression. Forty-eight hours after transfection, cells were harvested, pelleted by centrifugation at 1,000 rpm (Sorvall ST 16R centrifuge, Thermo Fisher), and washed once with cold PBS (0.01 M phosphate buffered saline NaCl 0.138 M; KCl 0.0027 M; pH 7.4). The cells were resuspended in PBS with protease inhibitors (cOmplete™ protease inhibitor cocktail, Roche product #11873580001) and cell lysates were prepared by sonication (Branson Sonifer 450, output=3, 20 episodes of stroke). The lysates were centrifuged (12,000×g for 10 min at 4° C.) to remove cell debris and the supernatants (containing ARM-SAM-TIR protein) were stored at −80° C. for later use in the in vitro ARM-SAM-TIR NADase assay (see below). Protein concentration was determined by the Bicinchoninic (BCA) method and used to normalize lysate concentrations.
The enzymatic assay was performed in a 384-well polypropylene plate in Dulbecco's PBS buffer in a final assay volume of 20 μL. ARM-SAM-TIR lysate with a final concentration of 5 μg/mL was pre-incubated with the respective compound at 1% DMSO final assay concentration over 2 h at room temperature. The reaction was initiated by addition of 5 μM final assay concentration of NAD+ as substrate. After a 2 hr room temperature incubation, the reaction was terminated with 40 μL of stop solution of 7.5% trichloroacetic acid in acetonitrile. The NAD+ and ADPR concentrations were analyzed by a RapidFire High Throughput Mass Spectrometry System (Agilent Technologies, Santa Clara, Calif.) using an API4000 triple quadrupole mass spectrometer (AB Sciex Framingham, Mass.).

Compound	IC50
COc1cncc(NCc2ccc(C3=CCN(C)CC3)nc2)n1 [Example 124]	5 to 15 µM
COc1cncc(NCc2ccc(Cl)nc2)n1 [Example 44]	5 to 15 µM

Same assay, conditions: ARM-SAM-TIR lysate 5 μg/mL from NRK1-HEK293T cells; 2 h pre-incubation; 5 μM NAD+; 2 hr room temperature; NAD+ and ADPR by RapidFire MS; read-out: SARM1 IC50

IC50	Compound
15 to 30 µM	COc1cncc(NCc2ccn(C)c(=O)c2)n1 [Example 157]
> 30 µM	COc1cc(NCc2cccnc2)cnn1 [Example 95]
> 30 µM	COc1cncc(NC(=O)c2ccc3ccc(Cl)cc3n2)n1 [Example 46]
5 to 15 µM	COc1cncc(NCc2cccc(Br)c2)n1 [Example 109]
> 30 µM	CNc1cncc(Br)n1 [Example 218]
15 to 30 µM	COc1cncc(NC(C)c2ccccc2)n1 (stereo not drawn) [Example 32]
15 to 30 µM	COc1cncc(NC(C)c2cccnc2)n1 (stereo not drawn) [Example 31]
> 30 µM	CCOc1cncc(NC(=O)c2ccccc2)n1 [Example 192]
5 to 15 µM	COc1cncc(NCc2ccc(Br)c(C)c2)n1 [Example 100]
> 30 µM	CCN1CCN(c2ccc(CNc3cnccn3)cn2)CC1 [Example 178]
5 to 15 µM	COc1cncc(NCC(O)c2cccc(C(F)(F)F)c2)n1 (stereo not drawn) [Example 45]
> 30 µM	Cn1cc(CNc2cncc(C#N)n2)cn1 [Example 75]
15 to 30 µM	Cn1cc(CNc2cncc(OCC(F)F)n2)cn1 [Example 116]
5 to 15 µM	COc1cncc(NCc2ccn(C)c2)n1 [Example 42]
5 to 15 µM	COc1cncc(NCc2ccccc2F)n1 [Example 85]
5 to 15 µM	COc1cncc(NC(=O)c2ccc3ccccc3n2)n1 [Example 23]
5 to 15 µM	COc1cncc(NCc2ccc(C(C)(C)O)cc2)n1 [Example 144]
5 to 15 µM	COc1cncc(NCc2ccc(N3CCOCC3)nc2)n1 [Example 77]
> 30 µM	CCOc1cncc(NC(C)=O)n1 [Example 193]
> 30 µM	Brc1cncc(NCc2cccnc2)n1 [Example 186]
5 to 15 µM	COc1cncc(NCc2ccc(N3CCC(O)CC3)nc2)n1 [Example 80]

IC50	Compound
> 30 µM	COc1cncc(C(=O)NCc2ccccc2)n1 [Example 196]
15 to 30 µM	CCNc1cncc(NCc2cccnc2)n1 [Example 25]
5 to 15 µM	COC(=O)c1ccc(CNc2cncc(OC)n2)cc1 [Example 67]
5 to 15 µM	COc1cncc(NCc2cccc(N3CCNCC3)c2)n1 [Example 126]
15 to 30 µM	COc1cncc(NCc2cnc3c(c2)ncn3C)n1 [Example 48]
> 30 µM	Cn1cc(CNc2cncc(OCc3ccccc3)n2)cn1 [Example 115]
< 5 µM	CNc1cncc(OC)n1 [Example 152]
5 to 15 µM	COc1cncc(NCc2cnn(-c3ccccc3)c2)n1 [Example 73]
> 30 µM	Cc1ncc(Cl)nc1NCc1cccnc1 [Example 201]
> 30 µM	CCCOc1cncc(NCc2cnn(C)c2)n1 [Example 170]
5 to 15 µM	COc1cncc(NCc2ccc(-c3nnco3)cc2)n1 [Example 146]
15 to 30 µM	COc1ncc(NCc2cccnc2)nc1OC [Example 43]
5 to 15 µM	COc1cncc(NCc2ccc(F)cc2)n1 [Example 86]
> 30 µM	c1cncc(CNc2cncc(OCC3CCCC3)n2)c1 [Example 199]
5 to 15 µM	COc1cncc(NCCCc2ccccc2)n1 [Example 33]
> 30 µM	CN(C)C(=O)c1cncc(NCc2cccnc2)n1 [Example 213]
> 30 µM	CCOc1cncc(NS(C)(=O)=O)n1 [Example 195]
> 30 µM	COc1cncc(NCc2cccnc2)c1C [Example 34]
5 to 15 µM	COc1cccc(CNc2cncc(OC)n2)c1 [Example 37]
15 to 30 µM	COc1cncc(NCc2cnn(C)c2)n1 [Example 21]
> 30 µM	COc1cc(NCc2ccc(S(N)(=O)=O)cc2)cnn1 [Example 175]

IC50	Compound
< 5 µM	COc1cncc(NCc2ccc(Br)cc2)n1 [Example 101]
> 30 µM	COc1cncc(N(C)S(=O)(=O)c2ccccc2)c1 [Example 208]
> 30 µM	COc1cncc(N(C)Cc2cccnc2)n1 [Example 202]
> 30 µM	COc1cncc(C(=O)NCc2cccnc2)n1 [Example 24]
> 30 µM	CNc1cncc(OCCCNC(=O)OC(C)(C)C)n1 [Example 168]
5 to 15 µM	COc1cncc(NCc2cc(C)no2)n1 [Example 56]
> 30 µM	CNC(=O)c1cncc(NC)n1 [Example 164]
15 to 30 µM	COc1cncc(NCc2cnn3cccnc23)n1 [Example 89]
5 to 15 µM	COc1cncc(NCc2cnn(S(C)(=O)=O)c2)n1 [Example 150]
> 30 µM	CCCCCOc1cncc(NCc2cccnc2)n1 [Example 15]
> 30 µM	COc1cc(NCc2cccnc2)[nH]c(=O)c1 [Example 108]
15 to 30 µM	CNc1cncc(NCCc2cnn(C)c2)n1 [Example 167]
< 5 µM	COc1cncc(NCc2cnc[nH]2)n1 [Example 61]
5 to 15 µM	COc1cncc(NCc2cnn(C3CCCCC3)c2)n1 [Example 106]
> 30 µM	COc1cncc(NCc2ccc(C(=O)O)cc2)n1 [Example 76]
> 30 µM	COc1cc(NCc2cc[nH]c(=O)c2)cnn1 [Example 176]
< 5 µM	CCN1CCC(n2cc(CNc3cncc(OC)n3)cn2)CC1 [Example 120]
15 to 30 µM	COc1cncc(NCc2ccc(-c3nn[nH]n3)cc2)n1 [Example 158]
> 30 µM	Brc1cncc(CCc2ccccc2)n1 [Example 72]
> 30 µM	COc1cncc(NCc2ccc(N3CCN(c4ccccc4)CC3)nc2)n1 [Example 216]
5 to 15 µM	COc1cncc(NCc2ccc(OC(F)(F)F)cc2)n1 [Example 143]

IC50	Compound
5 to 15 µM	COc1cncc(NCc2cnn(C3CCN(S(C)(=O)=O)CC3)c2)n1 [Example 107]
5 to 15 µM	COc1cncc(NCc2cn[nH]c2)n1 [Example 20]
5 to 15 µM	COc1cncc(NCc2ccc(N3CCN(C(C)C)CC3)nc2)n1 [Example 147]
< 5 µM	COc1cncc(NCc2ccc(N3CCN4CCCC4C3)nc2)n1 (stereo not drawn) [Example 131]
> 30 µM	CNc1ccnc(NC)n1 [Example 217]
> 30 µM	COc1cc(NC(=O)c2cnccn2)cnn1 [Example 137]
> 30 µM	COc1cncc(NCC2CCOCC2)n1 [Example 41]
5 to 15 µM	CCN1CCN(c2cccc(CNc3cncc(OC)n3)c2)CC1 [Example 155]
> 30 µM	OCc1cncc(NCc2cccnc2)n1 [Example 215]
> 30 µM	COc1cnc(C)c(NCc2cccnc2)n1 [Example 204]
15 to 30 µM	COc1cncc(NCc2cnn(C3CCN(C(C)=O)CC3)c2)n1 [Example 134]
5 to 15 µM	CCN1CCN(c2ccc(CNc3cncc(OC)n3)cn2)CC1 [Example 8]
5 to 15 µM	COc1cncc(NCc2ccc(N3CCC(F)(F)CC3)nc2)n1 [Example 130]
15 to 30 µM	COc1cc(NCc2cccnc2)n[nH]c1=O [Example 140]
> 30 µM	CNc1cc(OC)cnn1 [Example 161]
5 to 15 µM	COc1cncc(NCc2cncc3ccccc23)n1 [Example 27]
15 to 30 µM	CN(C)c1cncc(NCc2cccnc2)n1 [Example 16]
15 to 30 µM	COc1cnnc(NCc2cccnc2)c1 [Example 94]
> 30 µM	CCOc1cncc(NCc2ccccn2)n1 [Example 185]
